Measured values taken from ChEMBL document CHEMBL1124410, “New antitumor monoclonal antibody-vinca conjugates LY203725 and related compounds: design, preparation, and representative in vivo activity” (J Med Chem, 1989).
Converted amounts (≈) assume the structure as drawn.

Assays:
CCRF-CEM = experiment: In vitro inhibition of CCRF-CEM human leukemic lymphoblasts proliferation was determined; type: functional, cell-based
[1] = In vitro inhibition of P3UCLA human adenocarcinoma cell proliferation was determined in MTT proliferation assay; type: functional

| Compound | IC50 (CCRF-CEM) [µg/mL] | IC50 [1] [µg/mL] |
| --- | --- | --- |
| CC[C@]1(O)CC2CN(CCc3c([nH]c4ccccc34)[C@@](C(=O)OC)(c3cc4c(cc3OC)N(C)C3C45CCN4CC=C[C@](CC)(C45)C(OC(C)=O)[C@]3(O)C(=O)OC)C2)C1 (stereo partly specified) | 0.1 (≈ 0.123 µM) | – |
| CC[C@]1(O)CC2CN(CCc3c([nH]c4ccccc34)[C@@](C(=O)OC)(c3cc4c(cc3OC)N(C)C3C45CCN4CC=C[C@](CC)(C45)C(OC(=O)CCC(=O)O)[C@]3(O)C(=O)OC)C2)C1 (stereo partly specified) | 1.4 (≈ 1.61 µM) | 0.003 (≈ 0.00345 µM) |
| CC[C@]1(O)CC2CN(CCc3c([nH]c4ccccc34)[C@@](C(=O)OC)(c3cc4c(cc3OC)N(C)C3C45CCN4CC=C[C@](CC)(C45)C(O)[C@]3(O)C(=O)OC)C2)C1 (stereo partly specified) | – | 0.0003 (≈ 0.00039 µM) |
| CC[C@]1(O)C[C@@H]2CN(CCc3c([nH]c4ccccc34)[C@@](C(=O)OC)(c3cc4c(cc3OC)N(C)[C@H]3[C@@](O)(C(=O)NN)[C@H](O)[C@]5(CC)C=CCN6CC[C@]43[C@@H]65)C2)C1 [DESACETYLVINBLASTINEHYDRAZIDE] | 0.03 (≈ 0.039 µM) | < 0.0003 |
